The values that follow come from PMC11542720, “Modelling of chromatographic and electrophoretic behaviour of imidazoline and alpha adrenergic receptors ligands under different acid-base conditions” (ADMET & DMPK, 2024).

Data set [1] in a line: Capillary electrophoresis, effective electrophoretic mobility (acetone as EOF marker). Format: physicochemical. The note with it: for µeff4.4 / μeff4.4 (effective electrophoretic mobility): pH 4.4; for µeff4.4 / µeff7.4 / µeff9.1: I = 25 mmol/L, 11 kV, 25 °C, three replicates; for μeff7.4 (effective electrophoretic mobility, text) / µeff7.4: pH 7.4; for μeff9.1 (effective electrophoretic mobility) / µeff9.1: pH 9.1.
Procedure: All experiments were performed using the SpectraPhoresis 500-capillary electrophoresis system (Spectra Physics Analytical, USA) with UV detector. Data were recorded and analyzed using ChromQuest software version 4.0 (Thermo Finnigan, USA).
The separations were performed with an uncoated fused capillary (total length 31.5 cm, 50 μm id, effective length 24 cm, Polymicro Technologies, USA) applying a voltage of 11 kV and at 25 °C. The samples were injected hydrodynamically and detection was performed in the 200-280 nm range. The new capillary was rinsed stepwise with 0.1 M NaOH (15 min), water (10 min) and a running buffer (10 min). Finally, a 10 min high voltage was applied through the background electrolyte-filled capillary to equalize the inner surface, stabilize the electroosmotic flow and ensure good reproducibility of injections from run to run. […] Between runs, the capillary was rinsed with the background electrolyte for 1 minute.
where Lt is the total length of the capillary (cm), Leff is the effective length of the capillary (cm), U is the applied voltage (V), tm is the migration time of the analyte (s) and teof is the migration time of the electroneutral EOF marker acetone (s). The calculated μeff values (μeff4.4, μeff7.4 and μeff9.1) were used as dependent variables in QSMR analysis.

Data set [2] is described as follows: RP-HPLC retention on XTerra RP18, methanol/buffer; extrapolated retention factor log kw and slope S. The class given is physicochemical. The note with it: for log kw: intercept, extrapolated to 100 % buffer, methanol/buffer, 25 °C; for S (slope): slope of log k vs methanol volume fraction.
Procedure: All measurements were performed at 25°C with a constant flow rate of 0.8 mL min^-1 and UV detection in the range of 200-280 nm. The injection volume was 20 μL. […] The retention factor k was calculated for each mobile phase composition according to Equation (1):
where tr is the retention time of the tested compound and t0 is the dead volume measured with KNO3 as a non-retentive marker. The values corresponding to 100 % of the buffered eluent (log kw) were determined by extrapolation according to Equation (2):
where log kw is the intercept, S is the slope of the regression line, and φ is the volume fraction of the organic modifier in the mobile phase.
The retention behaviour in HPLC system was monitored by calculating extrapolated retention factors log kw corresponding to pure buffer as mobile phase.

The structures appear in SMILES notation. Values joined by “and” are separate entries in the source; they are usually repeats but may differ in a detail not shown here. Equal values may be shown once. Where a name gives a salt, the structure may show the parent alone.

Take `N=C(N)NC(=O)Cc1c(Cl)cccc1Cl` [Guanfacine, guanfacine hydrochloride]: in data set [1], the µeff4.4 was 24.242± 0.002 10^-5 cm^2 V^-1 s^-1; the “μeff7.4 (effective electrophoretic mobility, text)” value was 5.083 ± 0.025 10^-5 cm^2 / V s; the µeff7.4 is 5.083 ± 0.025 10^-5 cm^2 V^-1 s^-1; the “μeff9.1 (effective electrophoretic mobility)” value is “zero”. The µeff9.1 in data set [1] is listed as 0.000 ± 0.000 10^-5 cm^2 V^-1 s^-1. In addition, in data set [2] (pH 4.4), the log kw was 1.73 ± 0.01 and the “S (slope)” value is -3.47 ± 0.03. In addition, in data set [2] (pH 7.4), the log kw is reported as 1.92 ± 0.12 and the “S (slope)” value is on record as -3.21 ± 0.03. Besides, in data set [2] (pH 9.1), the log kw was 2.00 ± 0.00 and the “S (slope)” value is reported as -3.35 ± 0.01.

On to `Cc1cc2c(s1)Nc1ccccc1N=C2N1CCN(C)CC1` [Olanzapine, olanzapine], for which, in data set [1], the “μeff4.4 (effective electrophoretic mobility)” value was 33.632 ± 0.036 10^-5 cm^2 / V s, the µeff4.4 was 33.632 ± 0.036 10^-5 cm^2 V^-1 s^-1, the µeff7.4 was 10.679 ± 0.039 10^-5 cm^2 V^-1 s^-1 and the µeff9.1 is 1.241 ± 0.029 10^-5 cm^2 V^-1 s^-1. In addition, in data set [2] (pH 4.4), the log kw is 1.64 ± 0.04 and the “S (slope)” value is reported as -3.37 ± 0.11. Also, in data set [2] (pH 7.4), the log kw is 3.23 ± 0.07 and the “S (slope)” value is listed as -4.37 ± 0.12. Further, in data set [2] (pH 9.1), the log kw was 3.28 ± 0.08 and the “S (slope)” value is -4.46 ± 0.14.

For the compound `C1COC(NC(C2CC2)C2CC2)=N1` [Rilmenidine, rilmenidine hemifumarate], in data set [1], the µeff4.4 is 25.350 ± 0.121 10^-5 cm^2 V^-1 s^-1, the µeff7.4 is given as 22.551 ± 0.029 10^-5 cm^2 V^-1 s^-1 and the µeff9.1 is reported as 14.065 ± 0.214 10^-5 cm^2 V^-1 s^-1. Further, in data set [2] (pH 4.4), the log kw is on record as 0.92 ± 0.03 and the “S (slope)” value is recorded as -2.88 ± 0.09. Besides, in data set [2] (pH 7.4), the log kw was 0.90 ± 0.03 and the “S (slope)” value is recorded as -2.35 ± 0.11. Moreover, in data set [2] (pH 9.1), the log kw was 1.48 ± 0.02 and the “S (slope)” value is given as -2.96 ± 0.06.

Take `Clc1ccc2nsnc2c1NC1=NCCN1` [Tizanidine, tizanidine hydrochloride]: in data set [1], the µeff4.4 is on record as 24.770 ± 0.035 10^-5 cm^2 V^-1 s^-1, the µeff7.4 was 12.077 ± 0.042 10^-5 cm^2 V^-1 s^-1, the “μeff9.1 (effective electrophoretic mobility)” value was “zero” and the µeff9.1 is 0.000 ± 0.000 10^-5 cm^2 V^-1 s^-1. For the same compound, in data set [2] (pH 4.4), the log kw is 0.74 ± 0.02 and the “S (slope)” value was -2.65 ± 0.06. Besides, in data set [2] (pH 7.4), the log kw was 1.12 ± 0.01 and the “S (slope)” value is listed as -2.23 ± 0.03. Moreover, in data set [2] (pH 9.1), the log kw is 1.34 ± 0.01 and the “S (slope)” value is -2.63 ± 0.04.

With `C[C@@H]1CCC[C@H](C)N1NC(=O)c1ccc(Cl)c(S(N)(=O)=O)c1` [Clopamide, clopamide], in data set [1], the “μeff4.4 (effective electrophoretic mobility)” value is 0 10^-5 cm^2 / V s and 0.000 ± 0.000 10^-5 cm^2 / V s; the µeff4.4 is reported as 0.000 ± 0.000 10^-5 cm^2 V^-1 s^-1; the “μeff7.4 (effective electrophoretic mobility, text)” value is “zero”; the µeff7.4 was 0.000 ± 0.000 10^-5 cm^2 V^-1 s^-1. Also, in data set [1], the “μeff9.1 (effective electrophoretic mobility)” value is recorded as “negative values of effective mobility” and the µeff9.1 is on record as -9.640 ± 0.053 10^-5 cm^2 V^-1 s^-1. The “μeff7.4 (effective electrophoretic mobility, text)” value in data set [1] (listed as clopamide) is 0 10^-5 cm^2 / V s. Besides, in data set [2] (pH 4.4), the log kw is given as 2.00 ± 0.02 and the “S (slope)” value is on record as -3.61 ± 0.04. In data set [2] (pH 7.4), the log kw is 1.99 ± 0.03 and the “S (slope)” value is -3.59 ± 0.08. Moreover, in data set [2] (pH 9.1), the log kw is on record as 1.87 ± 0.01 and the “S (slope)” value is -3.34 ± 0.02.

In the case of `CN[C@@H](C)[C@@H](O)c1ccccc1` [Pseudoephedrine, pseudoephedrine hydrochloride], in data set [1], the µeff4.4 is recorded as 26.633 ± 0.043 10^-5 cm^2 V^-1 s^-1, the µeff7.4 was 23.691 ± 0,051 10^-5 cm^2 V^-1 s^-1 and the µeff9.1 is 9.299 ± 0.058 10^-5 cm^2 V^-1 s^-1. Besides, in data set [2] (pH 4.4), the log kw was 0.60 ± 0.03 and the “S (slope)” value is on record as -2.60 ± 0.10. Also, in data set [2] (pH 7.4), the log kw was 0.61 ± 0.02 and the “S (slope)” value was -2.67 ± 0.12. Besides, in data set [2] (pH 9.1), the log kw is reported as 1.10 ± 0.02 and the “S (slope)” value is given as -2.72 ± 0.07.

As for `CN[C@@H](C)[C@H](O)c1ccccc1` [Ephedrine, ephedrine hydrochloride], in data set [1], the µeff4.4 was 25.942 ± 0.032 10^-5 cm^2 V^-1 s^-1, the µeff7.4 is reported as 23.199 ± 0.103 10^-5 cm^2 V^-1 s^-1 and the µeff9.1 is given as 18.047 ± 0.070 10^-5 cm^2 V^-1 s^-1. In data set [2] (pH 4.4), the log kw is 0.56 ± 0.02 and the “S (slope)” value is -2.41 ± 0.08. In data set [2] (pH 7.4), the log kw is listed as 0.57± 0.02 and the “S (slope)” value was -2.49 ± 0.09. Besides, in data set [2] (pH 9.1), the log kw was 1.01 ± 0.02 and the “S (slope)” value is -2.52 ± 0.05.

Take `Cc1cc(C(C)(C)C)cc(C)c1CC1=NCCN1` [Xylometazoline, xylometazoline hydrochloride]: in data set [1], the µeff4.4 is recorded as 21.032 ± 0.019 10^-5 cm^2 V^-1 s^-1, the µeff7.4 is on record as 19.943 ± 0.006 10^-5 cm^2 V^-1 s^-1 and the µeff9.1 is given as 20.627 ± 0.015 10^-5 cm^2 V^-1 s^-1. In addition, in data set [2] (pH 4.4), the log kw was 2.61 ± 0.00 and the “S (slope)” value is -4.22 ± 0.01. In addition, in data set [2] (pH 7.4), the log kw is 2.59 ± 0.02 and the “S (slope)” value was -4.14 ± 0.04. Further, in data set [2] (pH 9.1), the log kw is given as 2.79 ± 0.08 and the “S (slope)” value is -4.17 ± 0.16.

On to `N=C(N)NC(=O)c1nc(Cl)c(N)nc1N` [Amiloride, Amiloride hydrochloride], for which, in data set [1], the µeff4.4 is listed as 25.939 ± 0.080 10^-5 cm^2 V^-1 s^-1, the µeff7.4 is reported as 21.786 ± 0.082 10^-5 cm^2 V^-1 s^-1 and the µeff9.1 is 6.416 ± 0.022 10^-5 cm^2 V^-1 s^-1. In data set [2] (pH 4.4), the log kw is given as 1.11 ± 0.04 and the “S (slope)” value is recorded as -3.31 ± 0.09. Further, in data set [2] (pH 7.4), the log kw is recorded as 1.05 ± 0.04 and the “S (slope)” value is -3.23 ± 0.12. In data set [2] (pH 9.1), the log kw is on record as 0.98 ± 0.04 and the “S (slope)” value is -2.74 ± 0.11.

Regarding `Clc1cccc(Cl)c1N=C1NCCN1` [Clonidine, Clonidine hydrochloride], in data set [1], the µeff4.4 is listed as 25.952 ± 0.084 10^-5 cm^2 V^-1 s^-1, the µeff7.4 is 19.607 ± 0.132 10^-5 cm^2 V^-1 s^-1 and the µeff9.1 is recorded as 2.575 ± 0.060 10^-5 cm^2 V^-1 s^-1. For the same compound, in data set [2] (pH 4.4), the log kw is 0.82 ± 0.02 and the “S (slope)” value is on record as -2.74 ± 0.05. For the same compound, in data set [2] (pH 7.4), the log kw is recorded as 0.98 ± 0.01 and the “S (slope)” value was -1.82 ± 0.02. In data set [2] (pH 9.1), the log kw is listed as 1.47 ± 0.01 and the “S (slope)” value is -2.71 ± 0.03.

Turning to `COc1ccccc1OCCNCC(O)COc1cccc2[nH]c3ccccc3c12` (stereo not drawn) [Carvedilol, carvedilol], in data set [1], the µeff4.4 was 18.061 ± 0.029 10^-5 cm^2 V^-1 s^-1, the µeff7.4 is reported as 13.057 ± 0.052 10^-5 cm^2 V^-1 s^-1 and the µeff9.1 is reported as 1.693 ± 0.071 10^-5 cm^2 V^-1 s^-1. Also, in data set [2] (pH 4.4), the log kw was 3.75 ± 0.04 and the “S (slope)” value is recorded as -5.84 ± 0.07. Further, the log kw in data set [2] (pH 4.4, listed as carvedilol) is reported as 3.75. For the same compound, in data set [2] (pH 7.4), the log kw is 4.15 ± 0.08 and the “S (slope)” value is -5.44 ± 0.13. Further, in data set [2] (pH 9.1), the log kw is 4.21 ± 0.10 and the “S (slope)” value was -5.56 ± 0.18.
